Values of other authors in patent publication US20190167706A1, “Solid Pharmaceutical Composition Comprising Amorphous Sofosbuvir” (Sandoz AG, priority 2016, published 2019).

Row | SMILES | relative humidity at which the substance deliquesces (amorphous form, compared to crystalline forms) | moisture stability: deliquescence under stress conditions (40° C. and a relative humidity (RH) of 75%)
1 | CC(C)OC(=O)[C@H](C)N[P@](=O)(OC[C@H]1O[C@@H](n2ccc(=O)[nH]c2=O)[C@](C)(F)[C@@H]1O)Oc1ccccc1 [Amorphous sofosbuvir, (S)-isopropyl 2-(((S)-(((2R,3R,4R,5R)-5-(2,4-dioxo-3,4-dihydropyrimidin-1(2H)-yl)-4-fluoro-3-hydroxy-4-methyltetrahydrofuran-2-yl)methoxy)(phenoxy)phosphoryl)amino)propanoate] | above 50% | 
2 | CC(C)OC(=O)[C@H](C)N[P@](=O)(OC[C@H]1O[C@@H](n2ccc(=O)[nH]c2=O)[C@](C)(F)[C@@H]1O)Oc1ccccc1 [sofosbuvir, (S)-isopropyl 2-(((S)-(((2R,3R,4R,5R)-5-(2,4-dioxo-3,4-dihydropyrimidin-1(2H)-yl)-4-fluoro-3-hydroxy-4-methyltetrahydrofuran-2-yl)methoxy)(phenoxy)phosphoryl)amino)propanoate] |  | deliquesces after a few hours
